{"source": "paper PMC12520456", "about": "“Regulating Enzyme Activity via Microaggregates Mediated by Phase Separation” (Advanced Science, 2025)", "key": {"[1]": {"test_system": "trypsin pre-incubated with aprotinin", "test": "Fluorescence anisotropy binding, aprotinin-blocked trypsin", "details": "inhibitor and protein both at 20 μM; Figure S3B", "description": "(§1) Figure S3. The fluorescent anisotropy evaluation of binding affinity between DPMD peptide with Proteinase K (A), and inhibitor-saturated and blocked trypsin (B) and chymotrypsin (C). Trypsin/Chymotrypsin was saturated and blocked by aprotinin (Yeasen Biotechnology, trypsin/chymotrypsin inhibitor). (D-H) The fluorescent anisotropy evaluation of binding affinity between DPMD peptide with elastase (D), lipase (E), amylase(F), carboxypeptidase (G), albumin (H) and immunoglobulins (I).\n(§2) Figure S4. The DLS analysis of trypsin, chymotrypsin and DPMD with/without trypsin or chymotrypsin. […]\n(§3) data acquisition. A series of enzyme solutions with varying concentrations (maximum concentrations of trypsin and chymotrypsin were 20 μM each) were prepared in Tris-HCl buffer (10 mM Tris, 150 mM NaCl, 1 mM EDTA, pH 7.0). These enzyme solutions were added to the 96-well plate and incubated with 100 nM DPMD at room temperature for 30 minutes, with triplicates.\n(§4) Fluorescence polarization was measured with an excitation wavelength of 470 nm and an emission […]\n(§5) Plot the fluorescence intensity versus concentration data as scatter plots using Origin software.\n(§6) For data analysis, fit the concentration-fluorescence polarization data with the logistic function in Origin 2021 software to obtain the fitting curve and determine the half-maximal effective concentration (EC50). […]"}, "[2]": {"target": "T1, chymotrypsin pre-incubated with aprotinin (Bos taurus, UniProt P00766)", "T1 construct": "purchased Aladdin (chymotrypsin); Yeasen Biotechnology (aprotinin)", "test": "Fluorescence anisotropy binding, aprotinin-blocked chymotrypsin", "details": "inhibitor and protein both at 20 μM; Figure S3C", "description": "as §1, §2, §3, §4, §5, §6"}, "Ca-binding assay": {"test": "Ca-binding assay", "details": "peptide 0.625-30 mg/mL with 3 μg/mL Ca2+, 20 mM sodium phosphate buffer pH 7.4, 37 °C 30 min; supernatant calcium by kit; four independent repeats; Figure S1C", "description": "circular dichroism spectrum and molar ellipticity (kdeg·cm2/mol) on the y-axis.\n3.3 Peptide Synthesis and DPMD Preparation\nAll peptides were synthetized according to the optimized HBTU activation/DIEA in situ neutralization protocol developed by […] on the CS bio 336X automated peptide synthesizer. Briefly, after cleavage and deprotection in a reagent cocktail containing 88% TFA, 5% phenol, 5% H2O and 2% TIPS, crude products were precipitated with cold ether and purified to homogeneity by preparative C18 reversed-phase HPLC. The molecular masses were ascertained by electrospray ionization mass spectrometry (ESI-MS). […]\n0.22μm filter to remove residue. The calcium content of the supernatant was measured using the Calcium ion detection kit (Beyotime) according to the recommended method. […]\nPeptide and enzyme solutions were prepared at varying concentrations and mixed at a 1:1 volume ratio. Solution turbidity was quantitatively assessed by monitoring absorbance at 405 nm using a BioTek spectrophotometer. For fluorescence-based characterization, peptides were labeled with FITC while enzymes were labeled with Cy5. […] For fluorescence recovery after photobleaching (FRAP) analysis, enzyme-aggregated patches were selectively bleached at 60% laser power using 488/640 nm lasers for 10 s, followed by time-lapse imaging at 1-min intervals. […]"}}, "note": "Non-standard residues stand in square brackets, D forms with d. Residues, ends and D or L forms follow the SMILES beside them.", "data": [{"compound": "CC[C@@H](C)[C@@H](NC(=O)[C@@H](CCC(N)=O)NC(=O)[C@H](NC(=O)[C@@H](Cc1ccc(O)cc1)NC(=O)CNC(=O)[C@@H](CC(C)C)NC(=O)[C@H](NC(=O)[C@@H](CO)NC(=O)CNC(=O)[C@@H](C)NC(=O)[C@@H](CC(=O)O)NC(=O)[C@@H](C)NC(=O)[C@@H](CCCNC(=N)N)NC(=O)[C@@H](C)NC(=O)[C@@H](CC(=O)O)NC(=O)[C@@H](C)NC(=O)[C@@H](CCCNC(=N)N)NC(=O)[C@@H](C)NC(=O)[C@@H](CC(=O)O)NC(=O)[C@@H](C)NC(=O)[C@@H](CCCNC(=N)N)NC(=O)[C@@H](C)NC(=O)[C@@H](CC(=O)O)NC(=O)[C@@H](C)NC(=O)[C@H](N)CCCNC(=N)N)C(C)C)[C@H](C)CC)C(=O)N[C@H](CCCNC(=N)N)C(=O)O", "note": "[DPMD, Ac‐(D‐RADA)4‐CONH2] (H-[dR][dA][dD][dA][dR][dA][dD][dA][dR][dA][dD][dA][dR][dA][dD][dA]G[dS][dV][dL]G[dY][dI][dQ][dI][dR]-OH; N-terminus and C-terminus assumed)", "values": [{"measurement": "β-sheet content", "value": 33.9, "unit": "%"}, {"measurement": "anisotropy change with aprotinin-blocked trypsin", "setting": "[1]", "value": "only a minimal anisotropy change"}, {"measurement": "anisotropy change with aprotinin-blocked chymotrypsin", "setting": "[2]", "value": "only a minimal anisotropy change"}, {"measurement": "Ca^2+ binding capacity", "setting": "Ca-binding assay", "value": "clear binding affinity"}]}]}
